Data: US9707305B2, “Formulas for diagnosing and treating hormone-dependent cancers and cancers of the organs responsible for steroid hormone synthesis” (Commissariat à l'énergie atomique et aux énergies …, priority 2011, dated 2017)

What was measured:
[1] = Biodistribution of the mixture of three free tracers (not formulated as nano-emulsion), comparative; type: in vivo; conditions: FVB female mouse
Procedure: (§1) In the following examples, the radioactivity was counted with the TRiCarb Counter (Ref: Packard, Liquid Scintillation Analyzers; Models 2200CA).
(§2) Fluobeam 700 (Fluoptics) is the apparatus with which the whole of the organs from the biodistribution were analyzed in fluorescence as well as the one with which the biodistribution kinetics of the nano-emulsions were established in vivo. This imaging system allows viewing of the fluorescence in spectral bands from 700 to 850 nm for a 650 nm excitation. The apparatus consists of an electric case containing the laser of class 3B, its power supply and an optical head containing the CCD camera.
(§3) As a comparison, a mixture of three tracers ([3H]CHE, [14C]CO and DiD) (not formulated as a nano-emulsion) was injected in order to observe the distribution of the tracers in the absence of droplets being used as a distribution carrier.

[2] = Biodistribution of the nano-emulsion of Example 1.1 (radioactivity and fluorescence per organ); type: in vivo
Procedure: as §1, §2
as §3, with “The nano-emulsions of Example 1 were injected into FVB female and male mice. As” for “As”
Tables 6 to 14 provide the biodistribution results of each tracer ([3H]CHE, [14C]CO and DiD) expressed as a percentage of the dose injected per gram of tissue (or [3H]CHE and [14C]CO) or as fluorescence intensity (for DiD) depending on the organ of the mouse, 15 minutes (Table 6), 2 hours (Table 7), 4 hours (Table 8), 6 hours (Table 9), 16 hours (Table 10), 24 hours (Table 11), 72 hours (Table 12), 120 hours (Table 13) and 168 hours (Table 14), after injection into an FVB female mouse of the nano-emulsion of Example 1.1. (nano-emulsion according to the invention comprising the three tracers ([3H]CHE, [14C]CO and DiD).

[3] = 2 h after injection of free tracers (not nano-emulsion)
[4] = 6 h after injection of free tracers (not nano-emulsion)
[5] = 16 h after injection of free tracers (not nano-emulsion)
[6] = 24 h after injection of free tracers (not nano-emulsion)
[7] = 15 min after injection of nano-emulsion of Example 1.1, FVB female mouse
[8] = 2 h after injection of nano-emulsion of Example 1.1, FVB female mouse

CCCCCCCC/C=C\CCCCCCC[14C](=O)O[C@H]1CC[C@@]2(C)C(=CC[C@H]3[C@@H]4CC[C@H]([C@H](C)CCCC(C)C)[C@@]4(C)CC[C@@H]32)C1 [[14C]CO, cholesteryl oleate]
biodistribution, Adrenal glands (MEAN) [1, 3]: 3.25 % of injected dose per gram of
biodistribution, Brain (MEAN) [1, 3]: 0.23 % of injected dose per gram of
biodistribution, Fat (MEAN) [1, 3]: 0.69 % of injected dose per gram of
biodistribution, Heart (MEAN) [1, 3]: 0.59 % of injected dose per gram of
biodistribution, Intestine (MEAN) [1, 3]: 0.76 % of injected dose per gram of
biodistribution, Kidney (MEAN) [1, 3]: 0.89 % of injected dose per gram of
biodistribution, Liver (MEAN) [1, 3]: 4.79 % of injected dose per gram of
biodistribution, Lung (MEAN) [1, 3]: 72.86 % of injected dose per gram of
biodistribution, Muscle (MEAN) [1, 3]: 0.38 % of injected dose per gram of
biodistribution, Ovary (MEAN) [1, 3]: 1.57 % of injected dose per gram of
biodistribution, Pancreas (MEAN) [1, 3]: 0.47 % of injected dose per gram of
biodistribution, Salivary gland (MEAN) [1, 3]: 0.74 % of injected dose per gram of
biodistribution, Spleen (MEAN) [1, 3]: 3.65 % of injected dose per gram of
biodistribution, Uterus (MEAN) [1, 3]: 0.49 % of injected dose per gram of
biodistribution, Adrenal glands (MEAN) [1, 4]: 3.56 % of injected dose per gram of
biodistribution, Brain (MEAN) [1, 4]: 0.26 % of injected dose per gram of
biodistribution, Fat (MEAN) [1, 4]: 1.05 % of injected dose per gram of
biodistribution, Heart (MEAN) [1, 4]: 1.21 % of injected dose per gram of
biodistribution, Intestine (MEAN) [1, 4]: 1.21 % of injected dose per gram of
biodistribution, Kidney (MEAN) [1, 4]: 1.36 % of injected dose per gram of
biodistribution, Liver (MEAN) [1, 4]: 5.53 % of injected dose per gram of
biodistribution, Lung (MEAN) [1, 4]: 142.66 % of injected dose per gram of
biodistribution, Muscle (MEAN) [1, 4]: 0.53 % of injected dose per gram of
biodistribution, Ovary (MEAN) [1, 4]: 2.12 % of injected dose per gram of
biodistribution, Pancreas (MEAN) [1, 4]: 0.76 % of injected dose per gram of
biodistribution, Salivary gland (MEAN) [1, 4]: 1.15 % of injected dose per gram of
biodistribution, Spleen (MEAN) [1, 4]: 3.53 % of injected dose per gram of
biodistribution, Uterus (MEAN) [1, 4]: 0.46 % of injected dose per gram of
biodistribution, Adrenal gland (MEAN) [1, 5]: 4.24 % of injected dose per gram of
biodistribution, Brain (MEAN) [1, 5]: 0.30 % of injected dose per gram of
biodistribution, Fat (MEAN) [1, 5]: 1.39 % of injected dose per gram of
biodistribution, Heart (MEAN) [1, 5]: 1.87 % of injected dose per gram of
biodistribution, Intestine (MEAN) [1, 5]: 1.09 % of injected dose per gram of
biodistribution, Kidney (MEAN) [1, 5]: 1.82 % of injected dose per gram of
biodistribution, Liver (MEAN) [1, 5]: 11.86 % of injected dose per gram of
biodistribution, Lung (MEAN) [1, 5]: 261.87 % of injected dose per gram of
biodistribution, Muscle (MEAN) [1, 5]: 0.43 % of injected dose per gram of
biodistribution, Ovary (MEAN) [1, 5]: 1.64 % of injected dose per gram of
biodistribution, Pancreas (MEAN) [1, 5]: 1.00 % of injected dose per gram of
biodistribution, Salivary gland (MEAN) [1, 5]: 1.29 % of injected dose per gram of
biodistribution, Spleen (MEAN) [1, 5]: 5.32 % of injected dose per gram of
biodistribution, Uterus (MEAN) [1, 5]: 1.00 % of injected dose per gram of
biodistribution, Adrenal gland (MEAN) [1, 6]: 2.60 % of injected dose per gram of
biodistribution, Brain (MEAN) [1, 6]: 0.22 % of injected dose per gram of
biodistribution, Fat (MEAN) [1, 6]: 1.64 % of injected dose per gram of
biodistribution, Heart (MEAN) [1, 6]: 0.82 % of injected dose per gram of
biodistribution, Intestine (MEAN) [1, 6]: 0.81 % of injected dose per gram of
biodistribution, Kidney (MEAN) [1, 6]: 1.02 % of injected dose per gram of
biodistribution, Liver (MEAN) [1, 6]: 3.29 % of injected dose per gram of
biodistribution, Lung (MEAN) [1, 6]: 29.91 % of injected dose per gram of
biodistribution, Muscle (MEAN) [1, 6]: 0.79 % of injected dose per gram of
biodistribution, Ovary (MEAN) [1, 6]: 1.40 % of injected dose per gram of
biodistribution, Pancreas (MEAN) [1, 6]: 0.95 % of injected dose per gram of
biodistribution, Salivary gland (MEAN) [1, 6]: 0.86 % of injected dose per gram of
biodistribution, Spleen (MEAN) [1, 6]: 2.27 % of injected dose per gram of
biodistribution, Uterus (MEAN) [1, 6]: 0.62 % of injected dose per gram of
accumulation of the free radioactive tracers in the lungs ([1]; Tables 2 to 5 (2 to 24 h), free tracers): strong accumulation
biodistribution, Adrenal glands (MEAN) [2, 7]: 10.18 % of injected dose per gram of
biodistribution, Brain (MEAN) [2, 7]: 0.499 % of injected dose per gram of
biodistribution, Fat (MEAN) [2, 7]: 1.15 % of injected dose per gram of
biodistribution, Heart (MEAN) [2, 7]: 8.676 % of injected dose per gram of
biodistribution, Intestine (MEAN) [2, 7]: 1.75 % of injected dose per gram of
biodistribution, Kidney (MEAN) [2, 7]: 4.20 % of injected dose per gram of
biodistribution, Liver (MEAN) [2, 7]: 8.86 % of injected dose per gram of
biodistribution, Lung (MEAN) [2, 7]: 3.92 % of injected dose per gram of
biodistribution, Muscle (MEAN) [2, 7]: 0.744 % of injected dose per gram of
biodistribution, Ovary (MEAN) [2, 7]: 4.59 % of injected dose per gram of
biodistribution, Pancreas (MEAN) [2, 7]: 1.262 % of injected dose per gram of
biodistribution, Salivary glands (MEAN) [2, 7]: 1.057 % of injected dose per gram of
biodistribution, Spleen (MEAN) [2, 7]: 3.58 % of injected dose per gram of
biodistribution, Uterus (MEAN) [2, 7]: 0.93 % of injected dose per gram of
biodistribution, Adrenal glands (MEAN) [2, 8]: 18.50 % of injected dose per gram of
biodistribution, Brain (MEAN) [2, 8]: 0.29 % of injected dose per gram of
biodistribution, Fat (MEAN) [2, 8]: 3.85 % of injected dose per gram of
biodistribution, Heart (MEAN) [2, 8]: 4.41 % of injected dose per gram of
biodistribution, Intestine (MEAN) [2, 8]: 2.33 % of injected dose per gram of
biodistribution, Kidneys (MEAN) [2, 8]: 3.91 % of injected dose per gram of
biodistribution, Liver (MEAN) [2, 8]: 19.41 % of injected dose per gram of
